Data: patent US20090252013A1, “HYDRAZIDE CHELATE COMPLEX COMPOUND, OPTICAL RECORDING MEDIUM USING THE COMPOUND AND RECORDING METHOD THEREOF” (Mitsubishi Chemical Corporation, priority 2006, published 2009)

What was measured:
[1] = Solubility test in coating solvent (2,2,3,3-tetrafluoropropanol); format: physicochemical; conditions: 20° C., result in words
Experimental: The dissolution is determined by whether or not residual crystals of the compound remain in the solvent when the compound and TFP are mixed with a predetermined concentration.
Then, the solution was dropped to filter paper (“No. 5C” quantitative filter paper manufactured by Toyo Roshi Kaisha), and dried at room temperature for 24 hours. It was visually observed whether or not crystal residues of undissolved components were present on the filter paper.

[2] = Light fastness test (xenon lamp) of dye recording layer; format: physicochemical; conditions: xenon lamp 0.55 W/m^2, 40 hours, 58° C., humidity 50%, absorbance at absorption maximum
Experimental: First, a solution containing a hydrazide chelate complex compound is applied over a substrate such that the film thickness after drying is about 50 nm, followed by drying, thus obtaining a layer containing the hydrazide chelate complex compound. The layer containing the resulting dye is irradiated with a xenon lamp (intensity 0.55 W/m^2) for a predetermined period of time under conditions at a temperature of 58° C. and a humidity of 50%. The absorbances at the absorption maximum wavelength before and after the irradiation are compared to obtain the dye residual ratio.
The resulting compound (A-6) was dissolved in 2,2,3,3-tetrafluoropropanol at a concentration of 1.0% by weight, and minute foreign particles were removed by filtration. Then, the resulting solution was dropped to an injection-molded polycarbonate substrate with a diameter of 120 mm and a thickness of 1.2 mm and coating was performed by spin coating (4,900 rpm), followed by drying at 80° C. for 30 minutes. […]
Under the conditions of temperature 58° C. and humidity 50%, a recording layer was irradiated with a xenon lamp at an irradiation intensity of 0.55 W/m^2 for 40 hours. Then, the dye residual ratio in the recording layer was determined on the basis of the absorbances before and after irradiation at the absorption maximum wavelength.

SMILES	solubility in a coating solvent at a concentration of 0.7% by weight [1]	solubility in a coating solvent at a concentration of 1.0% by weight [1]	dye residual ratio (after 40-hour light fastness test) [2]
CN1C(=CC=[N+]2N=C(c3ccccc3)[O][Cu-2]23[O]C(c2ccccc2)=N[N+]3=CC=C2N(C)c3ccccc3C2(C)C)C(C)(C)c2ccccc21 (centres unmarked) [Compound A-2]	completely dissolved	the amount of insolubles was slight	–
CCOC(=O)CC1=N[N+](=CC=C2N(C)c3ccccc3C2(C)C)[Co-2]2([O]1)[O]C(CC(=O)OCC)=N[N+]2=CC=C1N(C)c2ccccc2C1(C)C (centres unmarked) [Compound A-6]	completely dissolved	completely dissolved	90%
CCOC(=O)CC1=N[N+](=CC=C2N(CC)c3ccccc3C2(C)Cc2ccccc2)[Co-2]2([O]1)[O]C(CC(=O)OCC)=N[N+]2=CC=C1N(CC)c2ccccc2C1(C)Cc1ccccc1 (centres unmarked) [Compound A-11]	completely dissolved	completely dissolved	91%
CCN1C(=CC=[N+]2N=C(c3ccccc3)[O][Co-2]23[O]C(c2ccccc2)=N[N+]3=CC=C2N(CC)c3ccc(OC)cc3C2(C)C)C(C)(C)c2cc(OC)ccc21 (centres unmarked) [Compound A-86]	completely dissolved	completely dissolved	–
CCN1C(=CC=[N+]2N=C(c3cccc(OC)c3)[O][Co-2]23[O]C(c2cccc(OC)c2)=N[N+]3=CC=C2N(CC)c3ccc(OC)cc3C2(C)C)C(C)(C)c2cc(OC)ccc21 (centres unmarked) [Compound A-87]	completely dissolved	completely dissolved	–
CCOc1ccccc1C1=N[N+](=CC=C2N(CC)c3c(ccc4ccccc34)C2(C)C)[Co-2]2([O]1)[O]C(c1ccccc1OCC)=N[N+]2=CC=C1N(CC)c2c(ccc3ccccc23)C1(C)C (centres unmarked) [Compound A-88]	completely dissolved	completely dissolved	–
CCN1C(=CC=[N+]2N=C(c3ccccc3OC)[O][Co-2]23[O]C(c2ccccc2OC)=N[N+]3=CC=C2N(CC)c3ccc(OC)cc3C2(C)Cc2ccccc2)C(C)(Cc2ccccc2)c2cc(OC)ccc21 (centres unmarked) [Compound A-150]	completely dissolved	completely dissolved	–
CCN1C(=CC=[N+]2N=C(c3ccc(C(=O)OC)cc3)[O][Co-2]23[O]C(c2ccc(C(=O)OC)cc2)=N[N+]3=CC=C2N(CC)c3ccc(OC)cc3C2(C)Cc2cccc(F)c2)C(C)(Cc2cccc(F)c2)c2cc(OC)ccc21 (centres unmarked) [Compound A-152]	completely dissolved	completely dissolved	–
CCN(CC)C(=O)c1ccc(C2=N[N+](=CC=C3N(CC)c4ccc(OC)cc4C3(C)Cc3ccccc3)[Co-2]3([O]2)[O]C(c2ccc(C(=O)N(CC)CC)cc2)=N[N+]3=CC=C2N(CC)c3ccc(OC)cc3C2(C)Cc2ccccc2)cc1 (centres unmarked) [Compound A-159]	completely dissolved	completely dissolved	–
CCN1C(=CC=[N+]2N=C(c3ccc(C(=O)OC)cc3)[O][Co-2]23[O]C(c2ccc(C(=O)OC)cc2)=N[N+]3=CC=C2N(CC)c3ccc(OC)cc3C2(C)Cc2ccccc2)C(C)(Cc2ccccc2)c2cc(OC)ccc21 (centres unmarked) [Compound A-186]	completely dissolved	completely dissolved	–
CCCN(CCC)S(=O)(=O)c1ccc(C2=N[N+](=CC=C3N(CC)c4ccc(OC)cc4C3(C)Cc3ccccc3)[Co-2]3([O]2)[O]C(c2ccc(S(=O)(=O)N(CCC)CCC)cc2)=N[N+]3=CC=C2N(CC)c3ccc(OC)cc3C2(C)Cc2ccccc2)cc1 (centres unmarked) [Compound A-211]	completely dissolved	completely dissolved	–
CCN1C(=CC=[N+]2N=C(c3cccc(OCCOC)c3)[O][Co-2]23[O]C(c2cccc(OCCOC)c2)=N[N+]3=CC=C2N(CC)c3ccc(OC)cc3C2(C)Cc2ccccc2)C(C)(Cc2ccccc2)c2cc(OC)ccc21 (centres unmarked) [Compound A-212]	completely dissolved	completely dissolved	–
CN(C)c1ccc(C2=N/[N+](=C/c3ccccn3)[Co-2]3([O]2)[O]C(c2ccc(N(C)C)cc2)=N/[N+]3=C/c2ccccn2)cc1 [Compound B-4, reference compound]	the amount of insolubles was large	the amount of insolubles was large	–
[CH2-][N+]1=C\c2n(C)c3ccccc3[n+]2[Co-3]23([O]C(c4ccc(N(C)C)cc4)=N[N+]2=Cc2n(C)c4ccccc4[n+]23)[O]/C(c2ccc(N(C)C)cc2)=N\1 [Compound B-5, reference compound]	the amount of insolubles was large	the amount of insolubles was large	–
[CH2-][N+](=C\C=C\c1ccc(N(CC)CC)cc1)/N=C(\[O][Co-]1[O]C(c2c(C)cc(C)cc2C)=N/[N+]1=C/C=C/c1ccc(N(CC)CC)cc1)c1c(C)cc(C)cc1C [Compound B-6, reference compound]	the amount of insolubles was large	the amount of insolubles was large	–
